Tests used:
[1] = general statement on two-phase culture; cited from earlier work
[2] = tested on: SWITCH-PphoC Δgcd/pSTV28 strain; assay: Linalool addition test (growth, O.D. value over time); type: cell-based, P. ananatis; conditions: reagent Linalool added at O.D. 0.6 to 0.7; tested at 1251, 837, 626 and 417 mg/L; M9 minimum medium, 34° C.; FIG. 58
Protocol: The glycerol stock of the SWITCH-PphoC Δgcd/pSTV28 strain obtained by transforming the SWITCH-PphoC Δgcd strain constructed in Example 2 with the commercially available plasmid vector pSTV28 (produced by Takara Bio Inc.) was thawed, and 50 μL of a microbial cell suspension was uniformly applied onto an LB plate containing 60 mg/L of chloramphenicol and cultured at 34° C. for 18 hours while left to stand (without agitation). […] Cultivation was carried out using a small-sized shaking culture apparatus TVS062CA (produced by Advantec Toyo Kaisha, Ltd.) for 23 hours, the shaking of 5.0 sec was stopped every 15 minutes, and the O.D. values were automatically measured.
The concentration of linalool in the culture medium was calculated from the specific gravity of the reagent Linalool (0.86 (20/4° C.)) (reference literature: actual values supplied from Wako Pure Chemical Industries, Ltd.).
The graph showing changes of the O.D. value over time measured using TVS062CA communication software (TV100070, produced by Advantec Toyo Kaisha, Ltd.) is illustrated in FIG. 58.

For C=C[C@](C)(O)CCC=C(C)C [R-linalool, (3R)-3,7-dimethylocta-1,6-diene-3-ol], the “solubility with respect to water” value [1] is listed as “low solubility”.
With C=CC(C)(O)CCC=C(C)C (stereo not drawn) [linalool, Linalool] the “concentration of linalool added to the culture medium at which the O.D. value is decreased (microbial cell growth inhibition)” value [2] was ≥ 626 µg/mL.
In the case of C=C[C@@](C)(O)CCC=C(C)C [S-linalool, (3 S)-3,7-dimethylocta-1,6-diene-3-ol], the “solubility with respect to water” value [1] is given as “low solubility”.

— US20180291402A1, “Linalool Composition and Method of Producing Therefor” (AJINOMOTO CO., INC., priority 2015, published 2018)
